Reference: ChEMBL document CHEMBL1153202, “Optimization of piperidyl-ureas as inhibitors of soluble epoxide hydrolase” (Bioorg Med Chem Lett, 2010)
≈ marks a conversion by molar mass, not a printed value.

Key:
[1] = Plasma concentration in Sprague-Dawley rat at 5 mg/kg, po after 2 hrs by LC-MS/MS analysis; assay type: ADME, organism-based; design: dose 5 mg/kg, route oral
[2] = Plasma concentration in Sprague-Dawley rat at 5 mg/kg, po after 6 hrs by LC-MS/MS analysis; assay type: ADME, organism-based; design: dose 5 mg/kg, route oral
[3] = Plasma concentration in Sprague-Dawley rat at 5 mg/kg, po after 1 hr by LC-MS/MS analysis; assay type: ADME, organism-based; design: dose 5 mg/kg, route oral
[4] = Plasma concentration in Sprague-Dawley rat at 5 mg/kg, po after 4 hrs by LC-MS/MS analysis; assay type: ADME, organism-based; design: dose 5 mg/kg, route oral
[5] = Solubility of the compound; assay type: physicochemical
[6] = Plasma concentration in Sprague-Dawley rat at 30 mg/kg, po after 4 hrs by LC-MS/MS analysis; assay type: ADME, organism-based; design: dose 30 mg/kg, route oral

concentration at 2 h [1] [nM]	concentration at 6 h [2] [nM]	concentration at 1 h [3] [nM]	concentration at 4 h [4] [nM]	solubility [5] [µg/mL]	concentration at 4 h [6] [nM]	SMILES
2660	5430	1700	3800			O=C(O)c1ccc(OC2CCN(C(=O)NCc3ccc(Cl)cc3Cl)CC2)cc1
			100	3.4 (≈ 8.96 µM)		O=C(NCc1ccc(Cl)cc1Cl)N1CCC(Oc2ccccc2)CC1
			1300	174 (≈ 456 µM)		O=C(NCc1ccc(Cl)cc1Cl)N1CCC(Oc2ncccn2)CC1
					2800	O=C(Nc1ccc(OC(F)(F)F)cc1)N1CCC(n2cccc2)CC1
